Source: the NIST ThermoML archive (doi:10.1016/j.jct.2006.09.008)
Several values for one entry are separate records, joined by “and”; a condition that tells them apart may be missing. Equal entries are not always repeated. ± gives the expanded uncertainty stated by the source.

Assay: mn = molality of the nth substance listed, in mol/kg
Conditions: 350 kPa, Liquid

O=[N+]([O-])[O-].O=[N+]([O-])[O-].[Mg+2] [magnesium nitrate] + O
mass density [kg/m3]
Conditions | m1 = 0.0228 | m1 = 0.0567 | m1 = 0.1086 | m1 = 0.2145 | m1 = 0.3197 | m1 = 0.4749 | m1 = 0.6211 | m1 = 0.811 | m1 = 1 | m1 = 1.014
278.15 K | 1002.6 ± 0.14 | 1006.37 ± 0.14 | 1012.2 ± 0.14 | 1023.83 ± 0.15 | 1035.31 ± 0.16 | 1051.77 ± 0.17 | 1066.82 ± 0.18 | 1086.01 ± 0.2 | 1104.79 ± 0.21 | 1106.04 ± 0.21
283.15 K | 1002.29 ± 0.14 | 1005.98 ± 0.14 | 1011.77 ± 0.14 | 1023.21 ± 0.15 | 1034.48 ± 0.16 | 1050.8 ± 0.17 | 1065.63 ± 0.18 | 1084.59 ± 0.2 | 1103.2 ± 0.21 | 1104.4 ± 0.21
288.15 K | 1001.64 ± 0.14 | 1005.28 ± 0.14 | 1011.01 ± 0.14 | 1022.29 ± 0.15 | 1033.42 ± 0.16 | 1049.55 ± 0.17 | 1064.22 ± 0.18 | 1082.99 ± 0.19 | 1101.41 ± 0.21 | 1102.61 ± 0.2
298.15 K | 999.48 ± 0.14 | 1003.07 ± 0.14 | 1008.68 ± 0.14 | 1019.73 ± 0.15 | 1030.65 ± 0.15 | 1046.49 ± 0.16 | 1060.93 ± 0.17 | 1079.39 ± 0.19 | 1097.46 ± 0.21 | 1098.71 ± 0.2
308.15 K | 996.42 ± 0.14 | 999.96 ± 0.13 | 1005.49 ± 0.14 | 1016.39 ± 0.14 | 1027.14 ± 0.15 | 1042.74 ± 0.16 | 1056.98 ± 0.17 | 1075.19 ± 0.19 | 1093.03 ± 0.2 | 1094.27 ± 0.2
318.15 K | 992.59 ± 0.14 | 996.09 ± 0.14 | 1001.54 ± 0.13 | 1012.32 ± 0.14 | 1022.97 ± 0.15 | 1038.38 ± 0.16 | 1052.47 ± 0.17 | 1070.47 ± 0.18 | 1088.14 ± 0.2 | 1089.36 ± 0.19
328.15 K | 988.06 ± 0.14 | 991.53 ± 0.14 | 996.93 ± 0.13 | 1007.61 ± 0.14 | 1018.17 ± 0.14 | 1033.44 ± 0.15 | 1047.38 ± 0.16 | 1065.25 ± 0.18 | 1082.78 ± 0.19 | 1083.97 ± 0.19
338.15 K | 982.92 ± 0.15 | 986.36 ± 0.14 | 991.75 ± 0.14 | 1002.35 ± 0.13 | 1012.86 ± 0.14 | 1027.99 ± 0.15 | 1041.88 ± 0.16 | 1059.64 ± 0.17 | 1077.04 ± 0.19 | 1078.2 ± 0.18
348.15 K | 977.2 ± 0.15 | 980.38 ± 0.14 | 985.71 ± 0.14 | 996.29 ± 0.14 | 1007.11 ± 0.14 | 1022.17 ± 0.14 | 1035.94 ± 0.15 | 1053.67 ± 0.17 | 1071 ± 0.17 | 1071.85 ± 0.17
358.15 K | 970.99 ± 0.16 | 974.49 ± 0.15 | 979.87 ± 0.15 | 990.4 ± 0.14 | 1000.85 ± 0.13 | 1015.92 ± 0.14 | 1029.76 ± 0.15 | 1047.38 ± 0.16 | 1064.73 ± 0.18 | 1065.89 ± 0.17
368.15 K | 964.33 ± 0.16 | 967.8 ± 0.16 | 973.17 ± 0.15 | 983.77 ± 0.14 | 994.23 ± 0.14 | 1009.33 ± 0.14 | 1023.17 ± 0.15 | 1040.85 ± 0.16 | 1058.19 ± 0.17 | 1059.34 ± 0.17

O=[N+]([O-])[O-].O=[N+]([O-])[O-].[Mn+2] [manganese nitrate] + O
mass density
Conditions | m1 = 0.0248 | m1 = 0.0503 | m1 = 0.0836 | m1 = 0.5132
278.15 K | 1003.65 ± 0.16 kg/m3 | 1007.23 ± 0.17 kg/m3 | 1011.97 ± 0.17 kg/m3 | 1069.81 ± 0.2 kg/m3 and 1069.71 ± 0.2 kg/m3
283.15 K | 1003.3 ± 0.17 kg/m3 | 1006.89 ± 0.17 kg/m3 | 1011.53 ± 0.16 kg/m3 | 1068.8 ± 0.2 kg/m3 and 1068.6 ± 0.2 kg/m3
288.15 K | 1002.66 ± 0.17 kg/m3 | 1006.23 ± 0.16 kg/m3 | 1010.8 ± 0.16 kg/m3 | 1067.5 ± 0.2 kg/m3 and 1067.36 ± 0.2 kg/m3
298.15 K | 1000.56 ± 0.17 kg/m3 | 1004.07 ± 0.16 kg/m3 | 1008.54 ± 0.15 kg/m3 | 1064.29 ± 0.2 kg/m3 and 1064.16 ± 0.2 kg/m3
308.15 K | 997.52 ± 0.17 kg/m3 | 1000.98 ± 0.16 kg/m3 | 1005.36 ± 0.15 kg/m3 | 1060.4 ± 0.19 kg/m3 and 1060.29 ± 0.19 kg/m3
318.15 K | 993.61 ± 0.17 kg/m3 | 997.07 ± 0.16 kg/m3 | 1001.42 ± 0.15 kg/m3 | 1055.86 ± 0.19 kg/m3 and 1055.72 ± 0.19 kg/m3
328.15 K | 988.96 ± 0.17 kg/m3 | 992.44 ± 0.16 kg/m3 | 996.79 ± 0.15 kg/m3 | 1050.75 ± 0.18 kg/m3 and 1050.71 ± 0.18 kg/m3
338.15 K | 983.93 ± 0.17 kg/m3 | 987.31 ± 0.16 kg/m3 | 991.63 ± 0.15 kg/m3 | 1045.39 ± 0.18 kg/m3 and 1045.24 ± 0.18 kg/m3
348.15 K | 978.24 ± 0.18 kg/m3 | 981.59 ± 0.17 kg/m3 | 985.88 ± 0.16 kg/m3 | 1039.4 ± 0.18 kg/m3 and 1039.32 ± 0.18 kg/m3
358.15 K | 972 ± 0.18 kg/m3 | 975.36 ± 0.17 kg/m3 | 979.63 ± 0.16 kg/m3 | 1033.07 ± 0.17 kg/m3 and 1032.97 ± 0.17 kg/m3
368.15 K | 965.29 ± 0.18 kg/m3 | 968.63 ± 0.18 kg/m3 | 972.92 ± 0.17 kg/m3 | 1026.26 ± 0.17 kg/m3 and 1026.2 ± 0.17 kg/m3

O=[N+]([O-])[O-].O=[N+]([O-])[O-].[Sr+2] [strontium nitrate] + O
mass density [kg/m3]
Conditions | m1 = 0.0499 | m1 = 0.1006 | m1 = 0.2005 | m1 = 0.4995 | m1 = 0.7992 | m1 = 0.9995 | m1 = 1.502 | m1 = 2.003 | m1 = 3.001
278.15 K | 1009 ± 0.18 | 1017.14 ± 0.2 | 1034.72 ± 0.2 | 1082.77 ± 0.23 | 1130.52 ± 0.27 | 1158.71 ± 0.29 | 1231.7 ± 0.37 | 1297.55 ± 0.44 | 1414.38 ± 0.6
283.15 K | 1008.59 ± 0.19 | 1017.1 ± 0.2 | 1033.98 ± 0.2 | 1082.1 ± 0.23 | 1128.88 ± 0.27 | 1157.52 ± 0.29 | 1229.46 ± 0.37 | 1295.12 ± 0.44 | 1411.42 ± 0.6
288.15 K | 1007.84 ± 0.19 | 1016.26 ± 0.19 | 1032.93 ± 0.2 | 1080.71 ± 0.23 | 1126.92 ± 0.27 | 1155.34 ± 0.29 | 1226.86 ± 0.37 | 1292.1 ± 0.44 | 1407.51 ± 0.59
298.15 K | 1005.56 ± 0.19 | 1013.81 ± 0.19 | 1030.24 ± 0.19 | 1077.19 ± 0.23 | 1122.76 ± 0.26 | 1150.87 ± 0.29 | 1221.49 ± 0.36 | 1286.04 ± 0.43 | 1400.33 ± 0.58
308.15 K | 1002.4 ± 0.19 | 1010.56 ± 0.19 | 1026.7 ± 0.19 | 1073.1 ± 0.22 | 1117.95 ± 0.26 | 1146.06 ± 0.28 | 1215.55 ± 0.35 | 1279.41 ± 0.43 | 1393.17 ± 0.58
318.15 K | 998.47 ± 0.18 | 1006.61 ± 0.18 | 1022.45 ± 0.19 | 1068.41 ± 0.22 | 1112.6 ± 0.25 | 1140.61 ± 0.27 | 1209.17 ± 0.35 | 1272.01 ± 0.42 | 1385.59 ± 0.57
328.15 K | 993.97 ± 0.19 | 1001.97 ± 0.18 | 1017.66 ± 0.18 | 1063.12 ± 0.21 | 1106.82 ± 0.25 | 1134.72 ± 0.27 | 1201.99 ± 0.34 | 1264.61 ± 0.41 | 1377.87 ± 0.56
338.15 K | 988.74 ± 0.19 | 996.66 ± 0.18 | 1012.18 ± 0.18 | 1057.26 ± 0.21 | 1100.32 ± 0.24 | 1128.27 ± 0.26 | 1194.55 ± 0.33 | 1256.5 ± 0.4 | 1369.7 ± 0.55
348.15 K | 983.02 ± 0.19 | 990.85 ± 0.18 | 1006.4 ± 0.18 | 1051.04 ± 0.2 | 1094.06 ± 0.24 | 1121.59 ± 0.26 | 1188.05 ± 0.33 | 1249.78 ± 0.39 | 1361.53 ± 0.54
358.15 K | 976.66 ± 0.19 | 984.57 ± 0.19 | 999.95 ± 0.17 | 1044.34 ± 0.2 | 1087.19 ± 0.23 | 1114.51 ± 0.25 | 1180.88 ± 0.32 | 1242.32 ± 0.39 | 1353.05 ± 0.53
368.15 K | 969.9 ± 0.2 | 977.81 ± 0.19 | 993.09 ± 0.18 | 1037.31 ± 0.19 | 1079.94 ± 0.22 | 1107.09 ± 0.25 | 1173.15 ± 0.31 | 1234.38 ± 0.38 | 1344.4 ± 0.52
